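Tested at 5 concentrations; 48 h exposure; 96-well plates; endpoints linearly interpolated, else capped at highest concentration. TGI is the concentration that stops growth completely.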
Tests used:
Assay in all cases: DTP human tumour cell line panel, 48 h
A498 renal = test system: A498 renal
COLO 205 colon = test system: COLO 205 colon
OVCAR-8 ovarian = test system: OVCAR-8 ovarian
HCT-15 colon = test system: HCT-15 colon
786-0 renal = test system: 786-0 renal
SNB-19 CNS = test system: SNB-19 CNS
IGROV1 ovarian = test system: IGROV1 ovarian
SW-620 colon = test system: SW-620 colon
SK-OV-3 ovarian = test system: SK-OV-3 ovarian
HOP-62 NSCLC = test system: HOP-62 NSCLC
SF-268 CNS = test system: SF-268 CNS
HOP-92 NSCLC = test system: HOP-92 NSCLC
MDA-N = test system: MDA-N
UO-31 renal = test system: UO-31 renal
HL-60(TB) leukemia = test system: HL-60(TB) leukemia
DU-145 prostate = test system: DU-145 prostate
SF-539 CNS = test system: SF-539 CNS
OVCAR-5 ovarian = test system: OVCAR-5 ovarian
MDA-MB-435 = test system: MDA-MB-435
U251 CNS = test system: U251 CNS
M14 melanoma = test system: M14 melanoma
NCI-H226 lung = test system: NCI-H226 lung
LOX IMVI melanoma = test system: LOX IMVI melanoma
K-562 leukemia = test system: K-562 leukemia
SK-MEL-2 melanoma = test system: SK-MEL-2 melanoma
UACC-62 melanoma = test system: UACC-62 melanoma
SNB-75 CNS = test system: SNB-75 CNS
HCT-116 colon = test system: HCT-116 colon
SK-MEL-5 melanoma = test system: SK-MEL-5 melanoma
NCI-H460 lung = test system: NCI-H460 lung
MDA-MB-231 breast = test system: MDA-MB-231 breast
CCRF-CEM leukemia = test system: CCRF-CEM leukemia
TK-10 renal = test system: TK-10 renal
ACHN renal = test system: ACHN renal
NCI-H23 lung = test system: NCI-H23 lung
SN12C renal = test system: SN12C renal
SR leukemia = test system: SR leukemia
MCF7 breast = test system: MCF7 breast
NCI/ADR-RES ovarian = test system: NCI/ADR-RES ovarian
PC-3 prostate = test system: PC-3 prostate
HCC-2998 colon = test system: HCC-2998 colon
EKVX NSCLC = test system: EKVX NSCLC
SK-MEL-28 melanoma = test system: SK-MEL-28 melanoma
HS 578T breast = test system: HS 578T breast
T-47D breast = test system: T-47D breast
A549 NSCLC = test system: A549 NSCLC
RPMI-8226 leukemia = test system: RPMI-8226 leukemia
MOLT-4 leukemia = test system: MOLT-4 leukemia
SF-295 CNS = test system: SF-295 CNS
UACC-257 melanoma = test system: UACC-257 melanoma
OVCAR-3 ovarian = test system: OVCAR-3 ovarian
NCI-H522 lung = test system: NCI-H522 lung
CAKI-1 renal = test system: CAKI-1 renal
MALME-3M melanoma = test system: MALME-3M melanoma
KM12 colon = test system: KM12 colon
HT29 colon = test system: HT29 colon
RXF 393 renal = test system: RXF 393 renal
OVCAR-4 ovarian = test system: OVCAR-4 ovarian

SMILES: CC(=O)N1C(=O)c2cc3ccccc3cc21
- TGI (A498 renal): 89.4 µM
- TGI (COLO 205 colon): > 100 µM
- TGI (OVCAR-8 ovarian): > 100 µM
- TGI (HCT-15 colon): > 100 µM
- TGI (786-0 renal): > 100 µM
- TGI (SNB-19 CNS): > 100 µM
- TGI (IGROV1 ovarian): > 100 µM
- TGI (SW-620 colon): > 100 µM
- TGI (SK-OV-3 ovarian): > 100 µM
- TGI (HOP-62 NSCLC): > 100 µM
- TGI (SF-268 CNS): > 100 µM
- TGI (HOP-92 NSCLC): > 100 µM
- TGI (MDA-N): > 100 µM
- TGI (UO-31 renal): > 100 µM
- TGI (HL-60(TB) leukemia): > 100 µM
- TGI (DU-145 prostate): > 100 µM
- TGI (SF-539 CNS): > 100 µM
- TGI (OVCAR-5 ovarian): > 100 µM
- TGI (MDA-MB-435): > 100 µM
- TGI (U251 CNS): > 100 µM
- TGI (M14 melanoma): > 100 µM
- TGI (NCI-H226 lung): > 100 µM
- TGI (LOX IMVI melanoma): > 100 µM
- TGI (K-562 leukemia): > 100 µM
- TGI (SK-MEL-2 melanoma): > 100 µM
- TGI (UACC-62 melanoma): > 100 µM
- TGI (SNB-75 CNS): > 100 µM
- TGI (HCT-116 colon): > 100 µM
- TGI (SK-MEL-5 melanoma): > 100 µM
- TGI (NCI-H460 lung): > 100 µM
- TGI (MDA-MB-231 breast): > 100 µM
- TGI (CCRF-CEM leukemia): > 100 µM
- TGI (TK-10 renal): > 100 µM
- TGI (ACHN renal): > 100 µM
- TGI (NCI-H23 lung): > 100 µM
- TGI (SN12C renal): > 100 µM
- TGI (SR leukemia): > 100 µM
- TGI (MCF7 breast): > 100 µM
- TGI (NCI/ADR-RES ovarian): > 100 µM
- TGI (PC-3 prostate): > 100 µM
- TGI (HCC-2998 colon): > 100 µM
- TGI (EKVX NSCLC): > 100 µM
- TGI (SK-MEL-28 melanoma): > 100 µM
- TGI (HS 578T breast): > 100 µM
- TGI (T-47D breast): > 100 µM
- TGI (A549 NSCLC): > 100 µM
- TGI (RPMI-8226 leukemia): > 100 µM

SMILES: O=C(NCCCl)Nc1ccccc1
- TGI (MOLT-4 leukemia): > 100 µM
- TGI (A498 renal): > 100 µM
- TGI (COLO 205 colon): > 100 µM
- TGI (SF-295 CNS): > 100 µM
- TGI (OVCAR-8 ovarian): > 100 µM
- TGI (HCT-15 colon): > 100 µM
- TGI (786-0 renal): > 100 µM
- TGI (SNB-19 CNS): > 100 µM
- TGI (IGROV1 ovarian): > 100 µM
- TGI (SW-620 colon): > 100 µM
- TGI (SK-OV-3 ovarian): > 100 µM
- TGI (HOP-62 NSCLC): > 100 µM
- TGI (SF-268 CNS): > 100 µM
- TGI (HOP-92 NSCLC): > 100 µM
- TGI (MDA-N): > 100 µM
- TGI (UO-31 renal): > 100 µM
- TGI (HL-60(TB) leukemia): > 100 µM
- TGI (DU-145 prostate): > 100 µM
- TGI (OVCAR-5 ovarian): > 100 µM
- TGI (MDA-MB-435): > 100 µM
- TGI (U251 CNS): > 100 µM
- TGI (NCI-H226 lung): > 100 µM
- TGI (LOX IMVI melanoma): > 100 µM
- TGI (K-562 leukemia): > 100 µM
- TGI (SK-MEL-2 melanoma): > 100 µM
- TGI (UACC-62 melanoma): > 100 µM
- TGI (UACC-257 melanoma): > 100 µM
- TGI (OVCAR-3 ovarian): > 100 µM
- TGI (SNB-75 CNS): > 100 µM
- TGI (HCT-116 colon): > 100 µM
- TGI (NCI-H522 lung): > 100 µM
- TGI (SK-MEL-5 melanoma): > 100 µM
- TGI (CAKI-1 renal): > 100 µM
- TGI (MALME-3M melanoma): > 100 µM
- TGI (NCI-H460 lung): > 100 µM
- TGI (KM12 colon): > 100 µM
- TGI (MDA-MB-231 breast): > 100 µM
- TGI (CCRF-CEM leukemia): > 100 µM
- TGI (ACHN renal): > 100 µM
- TGI (NCI-H23 lung): > 100 µM
- TGI (SN12C renal): > 100 µM
- TGI (SR leukemia): > 100 µM
- TGI (HT29 colon): > 100 µM
- TGI (RXF 393 renal): > 100 µM
- TGI (MCF7 breast): > 100 µM
- TGI (NCI/ADR-RES ovarian): > 100 µM
- TGI (PC-3 prostate): > 100 µM
- TGI (HCC-2998 colon): > 100 µM
- TGI (EKVX NSCLC): > 100 µM
- TGI (SK-MEL-28 melanoma): > 100 µM
- TGI (OVCAR-4 ovarian): > 100 µM
- TGI (HS 578T breast): > 100 µM
- TGI (T-47D breast): > 100 µM
- TGI (A549 NSCLC): > 100 µM
- TGI (RPMI-8226 leukemia): > 100 µM

Reference: PubChem BioAssay (NCI)
